# Reference: patent US20090075941A1, “TREATING NEOPLASMS” (THE UAB RESEARCH FOUNDATION, priority 2006, published 2009)
# What was measured:
# AB-12 cells = test: Cell viability, MTS-assay; assay type: cell-based, mouse; conditions: for effect of added Ca2+ on the bisphosphonate's growth inhibitory effect: 1 mM CaCl2, N-BP 10^−4 M or p-BP 10^−3 M
# Procedure: (§1) Cell viability assays. Cells were plated on 96-well plates at the density of 1×10^3 cells in 100 μl per well in normal culture medium, with or without of the indicated concentrations of the various bisphosphonate combinations and or 1 mM CaCl2, 1 mM EGTA or vehicle and cultured for 48 h. Cell viability was assessed with 3-(4,5-dimethylthiazol-2-yl)-5-(3-carboxy tetrazolium, inner salt (MTS)-assays (CellTiter Aqueous One 96 from Promega; Madison, Wis.) according to the manufacturer's instructions. For each treatment, a PBS-control group was run simultaneously on the same plate. The results for each treatment were calculated as % of the corresponding PBS-group.
# J774 cells = test: Cell viability, MTS-assay; assay type: cell-based; conditions: for effect of added EGTA on the bisphosphonate's growth inhibitory effect: 1 mM EGTA, N-BP 10^−4 M or clodronate 10^−3 M
# Procedure: as §1
# [1] = test system: unprenylated Rap1A in MDA-MB-231 breast cancer cells; test: Western blot, unprenylated Rap1A (Example 2); assay type: cell-based, human; conditions: MDA-MB-231 cells, 24 h; for effect on alendronate-induced accumulation of unprenylated Rap1A: 10^−4 M alendronate plus clodronate 10^−3 M, geranylgeraniol 25 μM, or cytokines/LPS
# Procedure: (§2) Western blot analysis. Cells were cultured on 6-well plates in normal culture medium until near confluency. The cells were then rinsed with sterile PBS and cultured for further 24 h in serum-tree culture medium, in the presence or absence of the indicated bisphosphonates. Some cultures were also treated with 25 μM geranylgeraniol (cold, all trans), 1.0 μg/ml LPS (Sigma; St. Louis, Mo.) 10 ng/ml IL-1β (R&D Systems; Minneapolis, Minn.) or TNF-α (R&D Systems). To study bisphosphonate effects on connexin-43 expression, the cells were cultured for 24 h in serum-free culture medium in the presence of the indicated bisphosphonates or PBS as a vehicle control. Culture medium was then discarded, the cells were quickly lysed and prepared into Western blot samples, as described in Merrell et al. (2000) Breast Cancer Res. Treat. 81, 231-241. After boiling the supernatants in reducing sodium docedyl sulfate (SDS) sample buffer, equal amounts of protein (˜20-50 μg) were loaded per lane and the samples were electrophoresed on 10% SDS polyacrylamide gel and transferred to a nitrocellulose membrane. To detect, unprenylated Rap1A, the blots were incubated overnight at 4° C. with the antibody SC-1482 (Santa Cruz Technology (San Diego, Calif.)), diluted 1:1000 in Tris-buffered saline, 0.1% (v/v) Tween-20 (TEST), and then with peroxidase-conjugated anti-goat serum (Pierce; Rockford, Ill.), diluted 1:1000 in TBST. Total Rap1 was detected from stripped blots in a similar fashion, with the antibody SC-65 (Santa Cruz Technology). The phosphorylation status of p38 was investigated using anti-phospho-p38 (Cell Signaling; Beverly, Mass.) and after stripping of the membrane, with anti-total p38 antibodies (Cell Signaling), according to the manufacturer's instructions. Expression of connexin-43 was detected with a rabbit anti-connexin-43 antibody (Zymed Laboratories, Inc.; San Francisco, Calif.), diluted 1:1000 in TBST. The protein bands were visualized by chemiluminescence using SuperSignal West Pico ECL kit (Pierce Biotechnology, Inc.; Rockford, Ill.).
# [2] = test system: unprenylated Rap1A in AB-12 mesothelioma cells; test: Western blot, unprenylated Rap1A (Example 2); assay type: cell-based, mouse; conditions: AB-12 cells, 24 h; for effect on nitrogen-containing bisphosphonate-induced accumulation of unprenylated Rap1A: pyrophosphate-resembling : nitrogen-containing bisphosphonate ratio 100:1
# Procedure: as §2
# MDA-MB-231 cells = test: Cell viability, MTS-assay; assay type: cell-based, human; conditions: for effect of added Ca2+ on the bisphosphonate's growth inhibitory effect: 1 mM CaCl2, N-BP 10^−4 M or p-BP 10^−3 M
# Procedure: as §1
# [3] = test system: p38 phosphorylation in MDA-MB-231 cells; test: Western blot, phosphorylation of p38 (Example 2); assay type: cell-based, human; conditions: 10^−3 M
# Procedure: as §2, with “To detect, unprenylated Rap1A, the blots were incubated overnight at 4° C. with the antibody SC-1482 (Santa Cruz Technology (San Diego, Calif.)), diluted 1:1000 in Tris-buffered saline, 0.1% (v/v) Tween-20 (TEST), and then with peroxidase-conjugated anti-goat serum (Pierce; Rockford, Ill.), diluted 1:1000 in TBST.” left out, “The phosphorylation status of p38 was investigated using anti-phospho-p38 (Cell Signaling; Beverly, Mass.) and after stripping of the membrane, with anti-total p38 antibodies (Cell Signaling), according to the manufacturer's instructions.” left out, “The protein bands were visualized by chemiluminescence using SuperSignal West Pico ECL kit (Pierce Biotechnology, Inc.; Rockford, Ill.).” left out
# [4] = test system: p38 phosphorylation in AB-12 cells; test: Western blot, phosphorylation of p38 (Example 2); assay type: cell-based, mouse; conditions: excess, added simultaneously
# Procedure: as §2, with “To detect, unprenylated Rap1A, the blots were incubated overnight at 4° C. with the antibody SC-1482 (Santa Cruz Technology (San Diego, Calif.)), diluted 1:1000 in Tris-buffered saline, 0.1% (v/v) Tween-20 (TEST), and then with peroxidase-conjugated anti-goat serum (Pierce; Rockford, Ill.), diluted 1:1000 in TBST.” left out, “The phosphorylation status of p38 was investigated using anti-phospho-p38 (Cell Signaling; Beverly, Mass.) and after stripping of the membrane, with anti-total p38 antibodies (Cell Signaling), according to the manufacturer's instructions.” left out, “The protein bands were visualized by chemiluminescence using SuperSignal West Pico ECL kit (Pierce Biotechnology, Inc.; Rockford, Ill.).” left out
# [5] = Tumor uptake of Tc99m-medronate, biodistribution; assay type: in vivo; conditions: nude mice, i.v.
# Procedure: Tumor uptake of Tc99m-medronate. To investigate accumulation of the bone scanning agent (Tc99m-medronate) into the subcutaneous tumors, nude mice were first inoculated subcutaneously with AB-12 or MDA-MB-231 cells (10^6 cells in 100 μl of sterile PBS) and the tumors were allowed to form for 3-4 weeks. Tc99m-medronate (MDP-Bracco™; Bracco Diagnostics Inc.; Princeton, N.J.) was then injected into the tail veins of the mice (˜800-1000 μCi per mouse) in 100 μl. High-resolution pinhole SPECT/CT imaging studies (X-SPECT system, GammaMedica, Inc.; Northridge, Calif.) and biodistribution analyses were performed in nude mice with xenografted rumors to measure in vivo tumor retention of Tc99 medronate following i.v. injection. For SPECT imaging, a total of 64 projections were acquired with a 30-sec acquisition time per projection, using a pinhole collimator with a 1-mm tungsten pinhole insert. […] The dose retention, or % Injected Dose per gram, (% ID/g) of each tissue was calculated by measuring the radioactivity in the tissue using a gamma counter, decay correcting the count rate data to the Tc99m-medronate injection time and normalizing to the total injected dose in the animal as well as the tissue weight. Each animal's dose was determined by measuring the dosing syringe (AtomLab 100 dose calibrator; Biodex Medical Systems; Shirley, N.Y.) before and after injecting the mouse. […]
compound,measurement,setting,value
NCCCC(O)(P(=O)(O)O)P(=O)(O)O [alendronate],effect of added EGTA on the bisphosphonate's growth inhibitory effect,"AB-12 cells; 1 mM EGTA, N-BP 10^−4 M",reversed
same,cell viability,"AB-12 cells; 10^−4 M, P<0.001",significant decrease in cell viability
same,effect of added EGTA on the bisphosphonate's growth inhibitory effect,J774 cells,reversed
same,accumulation of unprenylated Rap1A,[1],dose-dependent accumulation
same,accumulation of unprenylated Rap1A,[2],dose-dependent accumulation
same,effect of added EGTA on the bisphosphonate's growth inhibitory effect,"MDA-MB-231 cells; 1 mM EGTA, N-BP 10^−4 M",reversed
same,cell viability,"MDA-MB-231 cells; 10^−4 M, P<0.001",significant decrease in cell viability
TNF-α,effect on alendronate-induced accumulation of unprenylated Rap1A,[1],not blocked
CC(O)(P(=O)(O)O)P(=O)(O)O [etidronate],effect of added Ca2+ on the bisphosphonate's growth inhibitory effect,AB-12 cells,augmented
same,accumulation of unprenylated Rap1A,[1],no effect
same,effect on zoledronate-induced (10^−4 M) p38 phosphorylation,[3],blocked
same,accumulation of unprenylated Rap1A,[2],no effect
same,effect on nitrogen-containing bisphosphonate-induced accumulation of unprenylated Rap1A,[2],completely blocked
same,effect on nitrogen-containing bisphosphonate (risedronate or zoledronate)-induced p38 phosphorylation,[4],blocked
same,effect of added Ca2+ on the bisphosphonate's growth inhibitory effect,MDA-MB-231 cells,not
CC(C)=CCC/C(C)=C/CC/C(C)=C/CC/C(C)=C/CO [geranylgeraniol],effect on alendronate-induced accumulation of unprenylated Rap1A,[1],reduced
"IL-1β: cytokine (R&D Systems), molecule completely unrelated to bisphosphonates",effect on alendronate-induced accumulation of unprenylated Rap1A,[1],not blocked
"O=P(O)(O)CP(=O)(O)O [Tc99m-medronate, metal not drawn]",tissue with the highest accumulation: bones,[5]; % dose retention in various tissues,highest proportion
same,accumulation (% dose retention) in AB-12 mesothelioma tumors compared with MDA-MB-231 breast cancer tumors,"[5]; tissues ~8 h after injection, % ID/g normalized to blood, P<0.05",significantly higher
O=P(O)(O)C(Cl)(Cl)P(=O)(O)O [clodronate],effect of added Ca2+ on the bisphosphonate's growth inhibitory effect,AB-12 cells,augmented
same,effect of added EGTA on the bisphosphonate's growth inhibitory effect,J774 cells,reversed
same,cell viability,"J774 cells; 10^−3 M alone, P<0.001 vs PBS-control",highest sensitivity
same,cell viability in combination with 1 mM CaCl2,J774 cells; clodronate 10^−3 M + 1 mM CaCl2,toxic
same,effect on alendronate-induced accumulation of unprenylated Rap1A,[1],reduced
same,accumulation of unprenylated Rap1A,[1],no effect
same,effect on zoledronate-induced (10^−4 M) p38 phosphorylation,[3],blocked
same,accumulation of unprenylated Rap1A,[2],no effect
same,effect on nitrogen-containing bisphosphonate-induced accumulation of unprenylated Rap1A,[2],completely blocked
same,effect on nitrogen-containing bisphosphonate (risedronate or zoledronate)-induced p38 phosphorylation,[4],blocked
same,effect of added Ca2+ on the bisphosphonate's growth inhibitory effect,MDA-MB-231 cells,not
